Reference: patent EP0679649B1, “2,3-Dihydrobenzofuran Derivatives” (Asahi Kasei Kogyo Kabushiki Kaisha, priority 1993, dated 1994)

Tests used:
[1] = system: male Wistar strain rats; test: Anti-depression activity (forced swimming test using rats); assay type: in vivo, rat; conditions: for Time spent in immobile state: 30 minutes before test, observed for 6 minutes, 6 rats, physiological saline 200; for time spent in the immobile state (result in words): hydrochloride, 30 mg/kg and 60 mg/kg p.o.
Excerpt: When a rat is put in a water tank, the rat struggles for its life to get out of the water (that is, the rat starts a "forced swimming"). If the rat finds that it is impossible for him to get out, the rat stops swimming and assumes an immobile state. It has been known that the administration of an antidepressant can cause a violent swimming motion in the rat for getting out of the water, with a result that the time spent in the immobile state is shortened. The shortening of the time in the immobile state of the rat in the forced swimming test by the administration of the antidepressant is well correlated to the clinical anti-depression effect. Accordingly, in developing antidepressants, the forced swimming test using a rat is the most reliable screening method. In the present test, male Wistar strain rats were used. Compounds obtained in Examples 1, 17 and 18 of the present invention (each in the form of a hydrochloride thereof) were, individually, orally administered to a rat. 30 minutes after the administration, the rat was put in a water tank and then, observed for 6 minutes. The time of the rat spent in the immobile state was measured.

[2] = target: T1, serotonin 1A receptor (Rattus norvegicus, UniProt P19327); test: Affinity for serotonin 1A receptor (inhibition of 3H-8-OH-DPAT binding to rat hippocampal membrane fraction); conditions: radioligand 3H-8-OH-DPAT, compounds tested as hydrochloride salt, read-out: 5-HT1A Ki
T1 construct: The resultant precipitate was used as a rat hippocampal membrane fraction in the following procedures; from tissue; host or cells: brain (hippocampal) membrane fraction of male SD rat
T1 sequence (P19327 1-422): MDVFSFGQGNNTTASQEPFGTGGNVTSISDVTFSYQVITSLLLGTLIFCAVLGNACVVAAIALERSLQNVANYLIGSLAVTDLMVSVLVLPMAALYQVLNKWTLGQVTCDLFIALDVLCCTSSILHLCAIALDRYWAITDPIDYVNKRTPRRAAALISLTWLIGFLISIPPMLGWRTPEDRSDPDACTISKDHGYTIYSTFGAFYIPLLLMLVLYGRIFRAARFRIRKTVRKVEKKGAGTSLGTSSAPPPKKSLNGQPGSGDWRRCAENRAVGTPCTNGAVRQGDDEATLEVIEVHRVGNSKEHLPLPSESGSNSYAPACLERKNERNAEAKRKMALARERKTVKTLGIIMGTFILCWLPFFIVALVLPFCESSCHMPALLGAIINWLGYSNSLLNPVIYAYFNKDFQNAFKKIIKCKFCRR

[3] = target: adrenaline α1 receptor; test: Affinity for adrenaline α1 receptor (inhibition of 3H-Prazosin binding to rat cerebral cortex membrane fraction); conditions: for Ki: rat cerebral cortex membrane fraction, radioligand 3H-Prazosin, compounds tested as hydrochloride salt
Protocol: A male SD strain rat (7-week old; Charles River) was decapitated, and brain was taken out therefrom quickly. Cerebral cortex of the rat was separated and extracted at […] under ice cooling. The extracted cerebral cortex was frozen at -80 °C for 24 hours or longer. This frozen system was gradually thawed under ice cooling and then, 50 mM Tris-HCl buffer (pH 7.4) was added to the brain under ice cooling to obtain a suspension. The resultant suspension was homogenized, and then subjected to centrifugation at 48000 g for 15 minutes, to thereby obtain a precipitate. The precipitate thus obtained was washed twice and resuspended in the same Tris-HCl buffer as used above. […] The total volume amount of the reaction mixture was 1 ml. The resultant reaction mixture was subjected to suction filtration using a Whatman GF/C filter, and the filter was washed three times in 50 mM Tris-HCl buffer (pH 7.4, 4 ml), transferred to a vial and then, the radioactivity of Prazosin absorbed on the filter was determined using a liquid scintillation counter. […] Further, substantially the same procedure as mentioned above was repeated, except that, instead of Prazosin, a test compound was used in a predetermined concentration. […] The binding inhibition ratios were plotted, taking the logarithmic value of the concentration of the test compound as the abscissa value, and the binding inhibition ratio as the ordinate value. Then, a curve was drawn by non-linear least square method.

[4] = system: mice; test: Toxicity test (intraperitoneal administration to mice); assay type: in vivo; conditions: intraperitoneally administered to mice, 100 mg/kg
[5] = Dose 30 mg/kg p.o. (hydrochloride), 30 mg/kg

| Compound | Ki [2] [µM] | Ki [3] [µM] | other results |
| --- | --- | --- | --- |
| O=C(NCCCCNCC1Cc2ccccc2O1)c1ccccc1 (single isomer, unassigned; (+)) [Example 17, (+)-2-{N-(4-benzoylamino)butyl}aminomethyl-2,3-dihydrobenzo[b]furan] | – | – | Time spent in immobile state ([1]; Dose 60 mg/kg p.o. (hydrochloride)): 142 s; time spent in the immobile state (result in words) [1]: remarkably shortened the time spent in the immobile state |
| O=C(NCCCCNCC1Cc2ccccc2O1)c1ccccc1 (single isomer, unassigned; (-)) [Example 18, (-)-2-{N-(4-benzoylaminobutyl)}aminomethyl-2,3-dihydrobenzo[b]furan] | 0.0013 | 0.27 | Time spent in immobile state [1, 5]: 142 s; time spent in the immobile state (result in words) [1]: remarkably shortened the time spent in the immobile state |
| O=C(NCCCCNCC1Cc2ccccc2O1)c1ccccc1 (stereo not shown) [Example 1, 2-{N-(4-benzoylaminobutyl)}aminomethyl-2,3-dihydrobenzo[b]furan] | 0.0029 | 0.35 | Time spent in immobile state [1, 5]: 117 s; time spent in the immobile state (result in words) [1]: remarkably shortened the time spent in the immobile state; mortality / toxicity [4]: none of the mice died |
| O=S(=O)(NCCCCNCC1Cc2ccccc2O1)c1ccccc1 (stereo not shown) [Example 2, 2-{N-(4-benzenesulfonamidobutyl)}aminomethyl-2,3-dihydrobenzo[b]furan] | 0.011 | 0.27 | – |
| O=C(NCCCCNCC1Cc2ccccc2O1)c1ccc(F)cc1 (stereo not shown) [Example 11, 2,3-dihydro-2-[N-{4-(4-fluorobenzoylamino)butyl}]aminomethylbenzo[b]furan] | 0.0026 | 0.3 | – |
| O=C(NCCCCNCC1Cc2ccccc2O1)c1cccc(C(F)(F)F)c1 (stereo not shown) [Example 13, 2,3-dihydro-2-[N-{4-(3-trifluoromethylbenzoylamino)butyl}]aminomethylbenzo[b]furan] | 0.0053 | 0.38 | – |
| O=C(NCCCCNCC1Cc2ccccc2O1)c1cccc([N+](=O)[O-])c1 (stereo not shown) [Example 15, 2,3-dihydro-2-[N-{4-(3-nitrobenzoylamino)butyl}]aminomethylbenzo[b]furan] | 0.011 | 0.25 | – |
| Cc1cccc(C(=O)NCCNCC2Cc3ccccc3O2)c1 (stereo not shown) [Example 20, 2-[N-{2-(3-methylbenzoylamino)ethyl}]aminomethyl-2,3-dihydrobenzo[b]furan] | 0.0016 | – | – |
| O=C(NCCNCC1Cc2ccccc2O1)c1ccc(F)cc1 (stereo not shown) [Example 21, 2-[N-{2-(4-fluorobenzoyl)aminoethyl}]aminomethyl-2,3-dihydrobenzo[b]furan] | 0.002 | – | – |
| O=C(NCCCNCC1Cc2ccccc2O1)c1ccc(F)cc1 (stereo not shown) [Example 23, 2-[N-{3-(4-fluorobenzoylamino)propyl}]aminomethyl-2,3-dihydrobenzo[b]furan] | 0.012 | – | – |
| ^3H-Prazosin [reference compound] | – | – | Kd ([3]; value used in the Ki calculation, read-out: Kd of the radioactive ligand for the adrenaline α1 receptor): 0.000133 µM |

Now from value to compound, other results behind:

| Ki [2] [µM] | Ki [3] [µM] | Compound | other results |
| --- | --- | --- | --- |
| 0.0012 | 0.27 | Cc1cccc(C(=O)NCCCCNCC2Cc3ccccc3O2)c1 (stereo not shown) [Example 4, 2,3-dihydro-2-[N-{4-(3-methylbenzoylamino)butyl}]aminomethylbenzo[b]furan] | – |
| 0.012 | 0.29 | Cc1ccc(C(=O)NCCCCNCC2Cc3ccccc3O2)cc1 (stereo not shown) [Example 5, 2,3-dihydro-2-[N-{4-(4-methylbenzoylamino)-butyl}]aminomethylbenzo[b]furan] | – |
| 0.0043 | 0.34 | COc1cccc(C(=O)NCCCCNCC2Cc3ccccc3O2)c1 (stereo not shown) [Example 7, 2,3-dihydro-2-[N-{4-(3-methoxybenzoylamino)butyl}]aminomethylbenzo[b]furan] | – |
| 0.0082 | 0.33 | O=C(NCCCCNCC1Cc2ccccc2O1)c1ccccc1F (stereo not shown) [Example 9, 2,3-dihydro-2-[N-{4-(2-fluorobenzoylamino)butyl}]aminomethylbenzo[b]furan] | – |
| 0.003 | 0.42 | O=C(NCCCCNCC1Cc2ccccc2O1)c1cccc(F)c1 (stereo not shown) [Example 10, 2,3-dihydro-2-[N-{4-(3-fluorobenzoylamino)butyl}]aminomethylbenzo[b]furan] | – |
| 0.0037 | – | O=C(NCCNCC1Cc2ccccc2O1)c1ccccc1 (stereo not shown) [Example 19, 2-{N-(2-benzoylaminoethyl)}aminomethyl-2,3-dihydrobenzo[b]furan] | – |
| 0.011 | 0.76 | CN(CCCCNC(=O)c1ccccc1)CC1Cc2ccccc2O1 (stereo not shown) [Example 24, 2-{N-(4-benzoylaminobutyl)-N-methyl}aminomethyl-2,3-dihydrobenzo[b]furan] | – |
| 0.0031 | 0.71 | CCN(CCCCNC(=O)c1ccccc1)CC1Cc2ccccc2O1 (stereo not shown) [Example 25, 2-{N-(4-benzoylaminobutyl)-N-ethyl}aminomethyl-2,3-dihydrobenzo[b]furan] | – |
| 0.0054 | 0.26 | O=C(NCCCCNCC1Cc2ccccc2O1)c1ccccc1O (stereo not shown) [Example 29, 2,3-dihydro-2-[N-{4-(2-hydroxybenzoylamino)butyl}]aminomethylbenzo[b]furan] | – |
